How the values were obtained:
calcium channel (α1H) = target: T1, calcium channel (α1H) (Homo sapiens, UniProt O95180); test: Inhibition of calcium channel (α1H) expressed in Xenopus oocytes (first-step screen); assay type: cell-based; conditions: read-out: % Inhibition in oocyte (100 μM)
T1 construct: expressed in transfected cells; host or cells: Xenopus oocytes
Protocol: (§1) In order to evaluate the pharmaceutical effects induced by the compounds of the present invention, the inhibitory effects were examined according to the following procedure. As the first step, those that show more than 50% of inhibition to the calcium channel (α1H) expressed in Xenopus oocytes were screened. For the second step, α1G Ca^2+ channel activities expressed in HEK 293 cells were measured to determine the effective inhibition concentration IC50.

α1G T-type Ca^2+ channel = target: T2, α1G T-type Ca^2+ channel (Homo sapiens, UniProt O43497); test: T-type Ca2+ channel blocking activity in HEK293 cells, whole-cell patch clamp; assay type: cell-based; conditions: HEK293 cells expressing α1G; for inhibition at 10 µM: 10 μM (0.1% DMSO), peak current; for IC50: whole-cell patch clamp, -100 mV to -30 mV
T2 construct: expressed in transfected cells; host or cells: HEK293 cells, G-418 selected
T2 sequence (O43497 whole entry): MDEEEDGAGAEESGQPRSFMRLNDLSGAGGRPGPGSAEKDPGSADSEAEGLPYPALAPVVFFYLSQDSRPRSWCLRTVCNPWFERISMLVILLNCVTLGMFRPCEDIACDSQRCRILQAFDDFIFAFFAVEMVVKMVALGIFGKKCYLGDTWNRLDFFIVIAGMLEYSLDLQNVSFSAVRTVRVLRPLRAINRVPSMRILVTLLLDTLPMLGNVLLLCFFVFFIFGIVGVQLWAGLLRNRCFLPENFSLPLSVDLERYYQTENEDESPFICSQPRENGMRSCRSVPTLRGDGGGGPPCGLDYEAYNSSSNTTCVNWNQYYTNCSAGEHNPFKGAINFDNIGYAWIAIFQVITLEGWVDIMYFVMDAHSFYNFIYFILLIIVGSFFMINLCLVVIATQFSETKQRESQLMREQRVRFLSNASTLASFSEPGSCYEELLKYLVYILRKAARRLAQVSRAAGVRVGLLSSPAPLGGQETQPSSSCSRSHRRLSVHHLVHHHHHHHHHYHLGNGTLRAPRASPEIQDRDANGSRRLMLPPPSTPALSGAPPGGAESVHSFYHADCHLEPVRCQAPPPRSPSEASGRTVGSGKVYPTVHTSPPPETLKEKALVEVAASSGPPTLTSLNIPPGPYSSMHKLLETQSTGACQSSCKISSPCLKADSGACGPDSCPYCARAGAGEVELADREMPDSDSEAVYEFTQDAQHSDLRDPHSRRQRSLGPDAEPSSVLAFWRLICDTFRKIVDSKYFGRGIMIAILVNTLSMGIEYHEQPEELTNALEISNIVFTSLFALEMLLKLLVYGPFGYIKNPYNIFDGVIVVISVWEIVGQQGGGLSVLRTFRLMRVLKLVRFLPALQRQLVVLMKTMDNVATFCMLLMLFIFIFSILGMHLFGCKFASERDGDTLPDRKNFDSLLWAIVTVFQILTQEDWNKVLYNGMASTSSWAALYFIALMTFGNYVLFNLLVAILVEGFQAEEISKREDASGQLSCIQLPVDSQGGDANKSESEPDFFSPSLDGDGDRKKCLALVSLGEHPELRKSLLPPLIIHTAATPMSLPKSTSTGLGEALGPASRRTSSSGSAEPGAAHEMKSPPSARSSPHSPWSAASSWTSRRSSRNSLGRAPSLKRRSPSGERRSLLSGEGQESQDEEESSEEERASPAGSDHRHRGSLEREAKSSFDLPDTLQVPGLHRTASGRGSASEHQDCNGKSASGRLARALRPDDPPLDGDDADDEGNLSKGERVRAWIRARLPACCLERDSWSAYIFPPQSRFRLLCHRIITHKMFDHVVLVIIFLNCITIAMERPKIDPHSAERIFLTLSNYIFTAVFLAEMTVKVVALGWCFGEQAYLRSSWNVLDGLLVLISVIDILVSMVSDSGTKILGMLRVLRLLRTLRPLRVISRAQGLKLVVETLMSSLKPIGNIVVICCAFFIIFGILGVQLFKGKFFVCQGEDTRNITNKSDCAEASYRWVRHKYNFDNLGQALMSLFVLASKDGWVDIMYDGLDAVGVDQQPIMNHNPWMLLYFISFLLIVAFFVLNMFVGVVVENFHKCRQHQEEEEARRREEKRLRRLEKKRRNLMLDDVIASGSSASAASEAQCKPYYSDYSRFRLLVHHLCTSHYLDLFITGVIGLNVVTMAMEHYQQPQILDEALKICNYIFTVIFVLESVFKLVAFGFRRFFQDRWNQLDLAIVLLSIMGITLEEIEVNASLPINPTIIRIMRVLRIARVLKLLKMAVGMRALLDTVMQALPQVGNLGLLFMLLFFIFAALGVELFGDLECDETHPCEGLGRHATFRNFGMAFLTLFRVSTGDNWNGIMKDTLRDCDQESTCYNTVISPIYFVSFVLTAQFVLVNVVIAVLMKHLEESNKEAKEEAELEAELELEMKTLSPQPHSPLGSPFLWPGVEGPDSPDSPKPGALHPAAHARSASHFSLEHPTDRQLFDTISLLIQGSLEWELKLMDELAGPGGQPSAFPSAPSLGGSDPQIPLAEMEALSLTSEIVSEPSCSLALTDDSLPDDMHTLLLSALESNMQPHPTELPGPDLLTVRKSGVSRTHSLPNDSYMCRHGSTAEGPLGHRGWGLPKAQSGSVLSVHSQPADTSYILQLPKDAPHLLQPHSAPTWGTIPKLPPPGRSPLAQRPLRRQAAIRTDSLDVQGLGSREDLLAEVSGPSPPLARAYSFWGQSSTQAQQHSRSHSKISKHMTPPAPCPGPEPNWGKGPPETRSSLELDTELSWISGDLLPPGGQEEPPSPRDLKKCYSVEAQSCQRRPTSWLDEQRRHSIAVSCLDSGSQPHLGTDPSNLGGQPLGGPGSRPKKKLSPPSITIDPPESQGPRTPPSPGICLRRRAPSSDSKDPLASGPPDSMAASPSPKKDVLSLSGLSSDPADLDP
Protocol: as §1
Measurement of T-type Ca^2+ Channel Blocking Activity of HEK293 Cells by Using Electrophysiological Method
The culture medium was prepared by adding 10% fetal bovine serum (FBS) and 1% penicillin/streptomycin (v/v) to Dulbecco's modified Eagle's medium (DMEM). The cells were cultured in an incubator having a wet condition of 95% air/5% CO2 at 37° C. The medium was replaced every 3 to 4 days and the cells were sub-cultured every week such that only the cells that expressed α1G T-type Ca^2+ channels could be grown using G-418 (0.5 mg/ml) solution. The cells that were used to measure T-type Ca^2+ channel activity were incubated on a cover slip coated by poly-L-lysine (0.5 mg/ml) every time they were sub-cultured and then recorded after 2 to 3 days. T-type Ca^2+ channel currents at the single-cell level were determined by the electrophysiological whole-cells patch clamp technique using EPC-9 amplifier (HEKA, German). Extracellular solution of NaCl 140 mM, CaCl2 2 mM, HEPES 10 mM (pH 7.4), and intracellular solution of KCl 130 mM, HEPES 10 mM, EGTA 11 mM, MgATP 5 mM (pH 7.4) were used for T-type Ca^2+ channel blocking activity. As the low voltage-activated T-type Ca^2+ channel activity protocol, a fine glass electrode of 3-4 MΩ resistance containing the above-prepared intracellular solution was inserted into a single cell to become the whole-cell recording mode, followed by fixing the potential of the cell membrane at −100 mV and measuring the inward current of the T-type Ca^2+ channel activity when […] at −30 mV (50 ms duration) every 15 seconds. Each compound was dissolved in 100% dimethylsulfoxide (DMSO) to prepare 10 mM stock solution, and then the effect of T-type Ca^2+ channel current at 1,000 fold diluted concentration of 10 μM (including 0.1% DMSO) was initially measured before IC50 values were determined by testing the effects at the concentration range for the IC50 measurement (in general, 0.1-100 μM). Specifically, cells were treated with each compound along with the extracellular solution until T-type Ca^2+ channel currents were stabilized under whole-cell voltage-clamp conditions and the inhibition level of the peak current due to the compound was calculated and expressed in percentage.

T1 sequence (O95180 whole entry): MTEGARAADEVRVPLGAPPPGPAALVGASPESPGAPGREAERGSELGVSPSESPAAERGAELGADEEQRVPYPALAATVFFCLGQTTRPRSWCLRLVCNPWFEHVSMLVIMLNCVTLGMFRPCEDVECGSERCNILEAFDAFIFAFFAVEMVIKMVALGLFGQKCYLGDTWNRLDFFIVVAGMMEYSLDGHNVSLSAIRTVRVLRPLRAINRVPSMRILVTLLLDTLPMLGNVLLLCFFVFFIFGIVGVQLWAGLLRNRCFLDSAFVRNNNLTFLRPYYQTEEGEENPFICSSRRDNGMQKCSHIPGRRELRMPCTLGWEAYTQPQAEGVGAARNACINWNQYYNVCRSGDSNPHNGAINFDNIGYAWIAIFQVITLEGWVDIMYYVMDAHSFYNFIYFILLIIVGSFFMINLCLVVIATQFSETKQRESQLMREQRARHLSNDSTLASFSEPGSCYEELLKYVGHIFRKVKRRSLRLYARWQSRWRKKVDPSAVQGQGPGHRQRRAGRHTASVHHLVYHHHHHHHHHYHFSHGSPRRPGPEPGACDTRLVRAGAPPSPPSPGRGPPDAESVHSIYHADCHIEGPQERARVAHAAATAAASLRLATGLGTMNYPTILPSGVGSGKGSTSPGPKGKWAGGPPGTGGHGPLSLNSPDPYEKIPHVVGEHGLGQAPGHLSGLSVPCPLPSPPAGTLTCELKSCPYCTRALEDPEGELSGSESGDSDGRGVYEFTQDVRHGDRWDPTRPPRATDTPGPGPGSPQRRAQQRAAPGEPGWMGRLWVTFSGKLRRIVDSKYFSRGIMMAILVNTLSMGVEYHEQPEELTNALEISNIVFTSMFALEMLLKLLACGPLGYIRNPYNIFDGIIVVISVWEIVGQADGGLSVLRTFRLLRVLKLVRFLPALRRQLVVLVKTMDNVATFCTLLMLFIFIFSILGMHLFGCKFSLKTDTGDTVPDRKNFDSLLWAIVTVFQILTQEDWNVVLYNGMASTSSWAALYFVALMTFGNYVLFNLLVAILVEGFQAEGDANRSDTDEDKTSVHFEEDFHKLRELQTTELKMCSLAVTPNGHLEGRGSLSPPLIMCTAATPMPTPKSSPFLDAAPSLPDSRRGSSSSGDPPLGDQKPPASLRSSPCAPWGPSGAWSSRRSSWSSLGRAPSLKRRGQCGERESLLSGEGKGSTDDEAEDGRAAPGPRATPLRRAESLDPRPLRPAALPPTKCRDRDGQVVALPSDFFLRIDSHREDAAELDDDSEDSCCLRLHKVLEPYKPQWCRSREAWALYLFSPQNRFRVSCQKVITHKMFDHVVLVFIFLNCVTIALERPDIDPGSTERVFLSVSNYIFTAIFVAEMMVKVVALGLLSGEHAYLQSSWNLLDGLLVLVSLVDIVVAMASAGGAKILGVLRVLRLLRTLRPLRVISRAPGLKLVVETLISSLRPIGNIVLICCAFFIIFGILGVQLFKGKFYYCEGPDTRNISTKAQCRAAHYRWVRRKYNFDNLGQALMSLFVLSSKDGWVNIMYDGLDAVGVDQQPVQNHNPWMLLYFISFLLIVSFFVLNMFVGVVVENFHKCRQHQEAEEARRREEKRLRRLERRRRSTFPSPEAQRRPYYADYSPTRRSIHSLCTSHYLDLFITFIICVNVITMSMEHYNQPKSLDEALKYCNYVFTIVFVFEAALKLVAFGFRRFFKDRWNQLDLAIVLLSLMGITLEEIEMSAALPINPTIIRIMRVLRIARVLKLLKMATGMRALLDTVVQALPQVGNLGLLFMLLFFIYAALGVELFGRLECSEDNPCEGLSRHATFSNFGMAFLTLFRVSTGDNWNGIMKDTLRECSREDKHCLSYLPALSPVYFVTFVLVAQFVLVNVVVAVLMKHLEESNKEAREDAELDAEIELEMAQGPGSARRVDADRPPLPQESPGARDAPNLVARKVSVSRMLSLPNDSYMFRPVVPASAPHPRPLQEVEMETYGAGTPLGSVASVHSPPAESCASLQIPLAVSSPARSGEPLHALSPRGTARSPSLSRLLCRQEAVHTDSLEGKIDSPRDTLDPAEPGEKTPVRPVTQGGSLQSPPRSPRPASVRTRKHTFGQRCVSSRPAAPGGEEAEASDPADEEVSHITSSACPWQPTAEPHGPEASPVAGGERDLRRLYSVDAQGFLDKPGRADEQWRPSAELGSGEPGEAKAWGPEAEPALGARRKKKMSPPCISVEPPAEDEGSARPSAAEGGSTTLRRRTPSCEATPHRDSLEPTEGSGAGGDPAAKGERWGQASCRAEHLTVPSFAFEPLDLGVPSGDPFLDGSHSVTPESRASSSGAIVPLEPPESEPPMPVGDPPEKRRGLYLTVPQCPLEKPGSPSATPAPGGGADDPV

inhibition at 100 µM (calcium channel (α1H)) [%] | inhibition at 10 µM (α1G T-type Ca^2+ channel) [%] | IC50 (α1G T-type Ca^2+ channel) [nM] | Structure (SMILES)
44.7 | 75.8 ± 1 | 900 ± 90 | CCCc1cc(CNCCN2CCN(c3cccc(Cl)c3)CC2)nn1-c1ccccc1 [compound 76, 3-{2-[4-(3-chlorophenyl)piperazin-1-yl]ethyl}aminomethyl-1-phenyl-5-propylpyrazole]
95.4 | 97.4 ± 1.3 | 570 ± 60 | Cc1cc(CNCCN2CCN(C(c3ccccc3)c3ccccc3)CC2)nn1-c1ccccc1 [compound 81, 3-{2-[4-(4-diphenylmethyl)piperazin-1-yl]ethyl}aminomethyl-5-methyl-1-phenylpyrazole]
24.8 | 60.5 ± 0.6 | 4420 ± 890 | CCCc1cc(CNCCN2CCN(C(c3ccccc3)c3ccccc3)CC2)nn1C(C)(C)C [compound 82, 1-t-butyl-3-{2-[4-(4-diphenylmethyl)piperazin-1-yl]ethyl}aminomethyl-5-propyl pyrazole]
97.8 | 92.4 ± 1.8 | 300 ± 40 | CCCc1cc(CNCCN2CCN(C(c3ccccc3)c3ccccc3)CC2)nn1-c1ccccc1 [compound 83, 3-{2-[4-(4-diphenylmethyl)piperazin-1-yl]ethyl}aminomethyl-1-phenyl-5-propylpyrazole]
40.4 | 89.9 ± 0.3 | 2190 ± 30 | CC(C)Cc1cc(CNCCN2CCN(C(c3ccccc3)c3ccccc3)CC2)nn1C(C)(C)C [compound 84, 1-t-butyl-5-iso-butyl-3-{2-[4-(4-diphenylmethyl)piperazin-1-yl]ethyl}aminomethylpyrazole]
34.5 | 79.2 ± 3.3 | 330 ± 660 | Cc1cc(CNCCN2CCN(C(c3ccccc3)c3ccc(Cl)cc3)CC2)nn1-c1ccccc1 (stereo not shown) [compound 92, 3-{2-[4-(4-chlorobenzhydryl)piperazin-1-yl]ethyl}aminomethyl-5-methyl-1-phenylpyrazole]
92.9 | 100 | 650 ± 30 | CCCc1cc(CNCCN2CCN(C(c3ccccc3)c3ccc(Cl)cc3)CC2)nn1-c1ccccc1 (stereo not shown) [compound 94, 3-{2-[4-(4-chlorobenzhydryl)piperazin-1-yl]ethyl}aminomethyl-1-phenyl-5-propylpyrazole]

The next lines start with the compound.

Structure (SMILES) | inhibition at 100 µM (calcium channel (α1H)) [%] | inhibition at 10 µM (α1G T-type Ca^2+ channel) [%] | IC50 (α1G T-type Ca^2+ channel) [nM]
CCCc1cc(CNCCN2CCN(c3ccccc3)CC2)nn1-c1ccccc1 [compound 4, 5-propyl-1-phenyl-3-[2-(4-phenylpiperazin-1-yl)ethyl]aminomethylpyrazole] | 80.1 | 94.5 ± 2.8 | 300 ± 30
CC(C)Cc1cc(CNCCN2CCN(c3ccccc3)CC2)nn1-c1ccccc1 [compound 7, 5-iso-butyl-1-phenyl-3-[2-(4-phenylpiperazin-1-yl)ethyl]aminomethylpyrazole] | 77.1 | 87.9 ± 2.7 | 820 ± 40
CCCc1cc(CNCCN2CCN(c3cccc(C)c3C)CC2)nn1C(C)(C)C [compound 15, 1-t-butyl-3-{2-[4-(2,3-dimethylphenyl)piperazin-1-yl]ethyl}aminomethyl-5-propylpyrazole] | 27.5 | 79.4 ± 1.6 | 1430 ± 150
CCCc1cc(CNCCN2CCN(c3cccc(C)c3C)CC2)nn1-c1ccccc1 [compound 16, 3-{2-[4-(2,3-dimethylphenyl)piperazin-1-yl]ethyl}aminomethyl-1-phenyl-5-propylpyrazole] | 74.6 | 95.9 ± 0.7 | 580 ± 50
Cc1cccc(N2CCN(CCNCc3cc(CC(C)C)n(-c4ccccc4)n3)CC2)c1C [compound 18, 5-iso-butyl-3-{2-[4-(2,3-dimethylphenyl)piperazin-1-yl]ethyl}aminomethyl-1-phenylpyrazole] | 92 | 92.7 ± 5.7 | 1020 ± 100
COc1ccc(N2CCN(CCNCc3cc(C)n(-c4ccccc4)n3)CC2)cc1 [compound 37, 3-{2-[4-(4-methoxyphenyl)piperazin-1-yl]ethyl}aminomethyl-5-methyl-1-phenylpyrazole] |  | 53 ± 1.6 | 9410 ± 550
CCCc1cc(CNCCN2CCN(c3ccc(OC)cc3)CC2)nn1-c1ccccc1 [compound 39, 3-{2-[4-(4-methoxyphenyl)piperazin-1-yl]ethyl}aminomethyl-5-propyl-1-phenylpyrazole] | 67.8 | 91.6 ± 0.5 | 900 ± 70
COc1ccc(N2CCN(CCNCc3cc(CC(C)C)n(-c4ccccc4)n3)CC2)cc1 [compound 42, 5-iso-butyl-3-{2-[4-(4-methoxyphenyl)piperazin-1-yl]ethyl}aminomethyl-1-phenyl pyrazole] | 73.3 | 95.6 ± 1.8 | 1040 ± 150
CCCc1cc(CNCCN2CCN(c3ccc([N+](=O)[O-])cc3)CC2)nn1-c1ccccc1 [compound 51, 3-{2-[4-(4-nitrophenyl)piperazin-1-yl]ethyl}aminomethyl-1-phenyl-5-propylpyrazole] | 51.3 | 95.3 ± 1.4 | 660 ± 70
CC(C)Cc1cc(CNCCN2CCN(c3ccc([N+](=O)[O-])cc3)CC2)nn1C(C)(C)C [compound 52, 1-t-butyl-5-iso-butyl-3-{2-[4-(4-nitrophenyl)piperazin-1-yl]ethyl}aminomethylpyrazole] | 56.4 |  | 1770 ± 200
CC(C)Cc1cc(CNCCN2CCN(c3ccc([N+](=O)[O-])cc3)CC2)nn1-c1ccccc1 [compound 53, 5-iso-butyl-3-{2-[4-(4-nitrophenyl)piperazin-1-yl]ethyl}aminomethyl-1-phenylpyrazole] | 74.4 | 94.8 ± 1.3 | 1060 ± 20
CCCc1cc(CNCCN2CCN(c3ccccc3F)CC2)nn1-c1ccccc1 [compound 63, 3-{2-[4-(2-fluorophenyl)piperazin-1-yl]ethyl}aminomethyl-1-phenyl-5-propylpyrazole] | 54.9 | 93.8 ± 1.4 | 660 ± 40
